Results reported in patent US6384051B1, “Method of treating or inhibiting colonic polyps” (American Cyanamid Company, priority 2000, dated 2002).
Counter-ions that a name gives are not always drawn.

Compared with `COc1cc2c(Nc3ccc(Cl)cc3F)c(C#N)cnc2cc1OCc1ccccc1` (as salt: hydrochloride) [Example 322, 7-Benzyloxy-4-(4-chloro-2-fluoro-phenylamino)-6-methoxy-quinoline-3-carbonitrile], `COc1cc2ncc(C#N)c(Nc3ccc(Cl)cc3F)c2cc1OC` [Example 228, 4-(4-Chloro-2-fluoro-phenylamino)-6,7-dimethoxy-quinoline-3-carbonitrile] is lower in melting point: 241 to 243 °C for the first, 139 to 141 °C for the second.

First: N#Cc1cnc2cc3c(cc2c1Nc1cccc(Br)c1)OCO3 [Example 40, 8-[(3-Bromophenyl)amino]-[1,3]-dioxolo[4,5-g]quinoline-7-carbonitrile]
Second: CN(C)CC#CC(=O)Nc1ccc2ncc(C#N)c(Nc3cccc(Br)c3)c2c1 [Example 59, N-[4-[(3-Bromophenyl)amino]-3-cyano-6-quinolinyl]-4-dimethylamino-2-butynamide]
The melting point of the first is higher: 201 to 205 °C for the first, 114 to 118 °C for the second.

First: COc1cc2ncc(C#N)c(Nc3cccc(C(F)(F)F)c3)c2cc1OC [Example 42, 4-[(3-Trifluoromethylphenyl)amino]-6,7-dimethoxy-3-quinolinecarbonitrile]
Second: COc1cc2ncc(C#N)c(Nc3cccc(CO)c3)c2cc1OC [Example 48, 4-[(3-(hydroxymethyl)phenyl)amino]-6,7-dimethoxy-3-quinolinecarbonitrile]
The melting point of the first is lower: 190 to 193 °C for the first, 250 to 255 °C for the second.

First: COc1cc2ncc(C#N)c(Nc3ccc(F)cc3)c2cc1OC [Example 46, 4-[(4-Fluorophenyl)amino]-6,7-dimethoxy-3-quinolinecarbonitrile]
Second: COc1cc2ncc(C#N)c(Oc3cccc(Br)c3)c2cc1OC [Example 49, 4-(3-Bromophenoxy)-6,7-dimethoxy-3-quinolinecarbonitrile]
The melting point of the first is higher: 282 to 285 °C for the first, 187 to 190 °C for the second.

Compared with `N#Cc1cnc2ccc(NC(=O)C#CCN3CCOCC3)cc2c1Nc1cccc(Br)c1` [Example 58, N-[4-[(3-Bromophenyl)amino]-3-cyano-6-quinolinyl]-4-morpholino-2-butynamide], `CC(C)N(C)CC#CC(=O)Nc1ccc2ncc(C#N)c(Nc3cccc(Br)c3)c2c1` [Example 191, N-[4-[(3-Bromophenyl)amino]-3-cyano-6-quinolinyl]-4-(N-isopropyl-N-methylamino)-2-butynamide] is higher in melting point: 112 to 115 °C for the first, 124 to 126 °C for the second.

First: CCN(CC)CC#CC(=O)Nc1ccc2ncc(C#N)c(Nc3cccc(Br)c3)c2c1 [Example 187, N-[4-[(3-Bromophenyl)amino]-3-cyano-6-quinolinyl]-4-diethylamino-2-butynamide]
Second: CCN(CC)CC#CC(=O)Nc1ccc2ncc(C#N)c(Nc3ccc(F)c(Cl)c3)c2c1 [Example 189, N-[4-[(3-Chloro-4-fluorophenyl)amino]-3-cyano-6-quinolinyl]-4-diethylamino-2-butynamide]
The melting point of the first is higher: 133 to 135 °C for the first, 117 to 120 °C for the second.

First: COCC#CC(=O)Nc1ccc2ncc(C#N)c(Nc3ccc(F)c(Cl)c3)c2c1 [Example 194, N-[4-[-(3-Chloro-4-fluorophenyl)amino]-3-cyano-6-quinolinyl]-4-methoxy-2-butynamide]
Second: CN(C)CC#CC(=O)Nc1ccc2ncc(C#N)c(Nc3ccc(F)c(Br)c3)c2c1 [Example 197, N-[4-[(3-Bromo-4-fluorophenyl)amino]-3-cyano-6-quinolinyl]-4-dimethylamino-2-butynamide]
The melting point of the first is lower: 170 to 171 °C for the first, 228 to 231 °C for the second.

Compared with `N#Cc1cnc2ccc(N)cc2c1Nc1ccc(F)c(Br)c1` [Example 196, 6-amino-4-[(3-Bromo-4-fluorophenyl)amino]-3-quinolinecarbonitrile], `COc1ccc(OC)c2c(Nc3cccc(Br)c3)c(C#N)cnc12` [Example 240, 4-(3-Bromo-phenylamino)-5,8-dimethoxy-quinoline-3-carbonitrile] is lower in melting point: 210 to 212 °C for the first, 72 to 74 °C for the second.

First: COc1cc2c(Nc3cccc(N(C)C)c3)c(C#N)cnc2c(OC)c1OC [Example 232, 4-(3-Dimethylamino-phenylamino)-6,7,8-trimethoxy-quinoline-3-carbonitrile]
Second: COc1cc2c(Nc3cccc(Br)c3)c(C#N)cnc2c(OC)c1OC [Example 241, 4-(3-Bromo-phenylamino)-6,7,8-trimethoxy-quinoline-3-carbonitrile]
The melting point of the first is lower: 142 to 144 °C for the first, 211 to 213 °C for the second.

First: COc1cc2c(Nc3ccc(Cl)cc3F)c(C#N)cnc2c(OC)c1OC [Example 234, 4-(4-Chloro-2-fluoro-phenylamino)-6,7,8-trimethoxy-quinoline-3-carbonitrile]
Second: COc1cc2c(Nc3cc(O)c(Cl)cc3F)c(C#N)cnc2c(OC)c1OC [Example 244, 4-(4-Chloro-2-fluoro-5-hydroxy-phenylamino)-6,7,8-trimethoxy-quinoline-3-carbonitrile]
The melting point of the first is lower: 166 to 168 °C for the first, 223 to 225 °C for the second.

First: COc1ccc(OC)c2c(Nc3ccc(C)c(O)c3)c(C#N)cnc12 [Example 239, 4-(3-Hydroxy-4-methyl-phenylamino)-5,8-dimethoxy-quinoline-3-carbonitrile]
Second: COc1ccc(OC)c2c(Nc3cccc(N(C)C)c3)c(C#N)cnc12 [Example 242, 4-(3-Dimethylamino-phenylamino)-5,8-dimethoxy-quinoline-3-carbonitrile]
The melting point of the first is higher: 240 to 242 °C for the first, 103 to 105 °C for the second.

With `N#Cc1cnc2ccc(NC(=O)C#CCO)cc2c1Nc1cccc(Br)c1` [Example 57, N-[4-[(3-Bromophenyl)amino]-3-cyano-6-quinolinyl]-4-hydroxy-2-butynamide] the melting point was 253 to 254 °C (dec.).
In the case of `COCC#CC(=O)Nc1ccc2ncc(C#N)c(Nc3cccc(Br)c3)c2c1` [Example 60, N-[4-[(3-Bromophenyl)amino]-3-cyano-6-quinolinyl]-4-methoxy-2-butynamide], the melting point is reported as 198 to 202 °C (dec.).
In the case of `CCN1CCN(CC#CC(=O)Nc2ccc3ncc(C#N)c(Nc4cccc(Br)c4)c3c2)CC1` [Example 188, N-[4-[(3-Bromophenyl)amino]-3-cyano-6-quinolinyl]-4-(N-ethylpiperazino)-2-butynamide], the melting point is reported as 161 °C (dec.).
In the case of `CN1CCN(CC#CC(=O)Nc2ccc3ncc(C#N)c(Nc4cccc(Br)c4)c3c2)CC1` [Example 190, N-[4-[(3-Bromophenyl)amino]-3-cyano-6-quinolinyl]-4-(N-methylpiperazino)-2-butynamide], the melting point is reported as 190 °C (dec.).
With `CC(C)N(CC#CC(=O)Nc1ccc2ncc(C#N)c(Nc3cccc(Br)c3)c2c1)C(C)C` [Example 192, N-[4-[(3-Bromophenyl)amino]-3-cyano-6-quinolinyl]-4-diisopropylamino-2-butynamide] the melting point was 130 °C (dec.).
For `CN(C)CC#CC(=O)Nc1ccc2ncc(C#N)c(Nc3ccc(F)c(Cl)c3)c2c1` [Example 193, N-[4-[(3-Chloro-4-fluorophenyl)amino]-3-cyano-6-quinolinyl]-4-dimethylamino-2-butynamide], the melting point was 225 °C (dec.).
In the case of `COc1cc2c(Nc3ccc(C)c(O)c3)c(C#N)cnc2c(OC)c1OC` [Example 233, 4-(3-Hydroxy-4-methyl-phenylamino)-6,7,8-trimethoxy-quinoline-3-carbonitrile], the melting point is reported as 200 °C (dec.).
With `COc1ccc(OC)c2c(Nc3cc(O)c(Cl)cc3F)c(C#N)cnc12` [Example 243, 4-(4-Chloro-2-fluoro-5-hydroxy-phenylamino)-5,8-dimethoxy-quinoline-3-carbonitrile] the melting point was 240 °C (dec.).
